Measurements: US20220213198A1, “METHOD OF TREATMENT” (The Council of the Queensland Institute of Medical Research, priority 2019, published 2022)

Columns and labels:
[1] = test system: MAIT cells; assay: Ex vivo MAIT cell activation and cytokine profile in tumor-bearing lungs; set-up: species or system mouse; conditions: lungs of mice injected with treated vs DMSO-treated B16F10, day 5
Procedure: FIG. 4. Upregulation of MR1 on B16F10 activates MAIT cells to suppress NK cell effector function through IL-17. (A) Schematic to analyze MAIT or NK cell effector function in the lungs of C57BL/6 WT or MR1^−/− mice injected with 5-OP-RU- or DMSO-stimulated B16F10 melanoma cells. On day 5 relative to tumor inoculation, lungs were harvested and stimulated with PMA/ionomycin plus protein transport inhibitors for 4 hours and MAIT or NK cell function was assessed by flow cytometry. (B) The proportion of CD69^+ MAIT cells amongst total MAIT cells (B220^− F4/80^− MR1-5-OP-RU tetramer^+ TCRβ^+) in naïve or tumor-bearing lungs. Data presented as mean±SEM. (C) Representative dot plot of IL-17 expression by MAIT cells. The (D) proportion of IL-17^+ MAIT cells amongst total MAIT cells in the lungs of naïve and tumor-bearing mice as indicated. Data presented as mean±SEM. (E) Representative dot plot of TNF expression by MAIT cells. The (F) proportion of TNF MAIT cells and (G) IFNγ^+ MAIT cells amongst total MAIT cells in the lungs of naïve and tumor-bearing mice as indicated. (H, I) On day 5 relative to tumor inoculation, lungs were harvested (n=6/group) and stimulated with PMA/ionomycin plus protein transport inhibitors for 3 hours and NK cell function was assessed by flow cytometry. The proportion of IFNγ^+ NK cells and CD107a^+ NK cells amongst total NK cells (NKp46^+ NK1.1^+ TCRβ^− CD45.2^+) in tumor-bearing C57BL/6 WT or IL-17^−/− mice. Data presented as mean±SEM. (J) Groups of WT or MR1^−/− mice (n=4-6/group) were injected i.v. with 1×10^5 B16F10 melanoma cells. In some groups, sorted MAIT cells (2×10^5 cells/mouse) from C57BL/6 WT or IL-17A^−/− mice were i.v. injected into the indicated groups of mice one day before tumor inoculation. On day 14 relative to tumor cell inoculation, lungs were harvested and the metastatic burden was quantified by counting colonies on the lung surface. […] Significant differences between groups as indicated by crossbars were determined using a one-way ANOVA followed by Tukey's post-hoc test (B, D, F, J), or a Mann-Whitney test (H, I), *p<0.05, **p<0.01, ***p<0.001, ****p<0.0001.
Naïve or tumor-bearing lung single-cell suspensions were generated as previously described (Blake et al., 2016) and incubated with anti-CD16/32 (2.4G2) to block Fc receptors on ice prior to surface staining with the antibodies. […] All data were collected on a Fortessa 4 flow cytometer (BD Biosciences) and analyzed with FlowJo v10 software (TreeStar, Inc.).
Single cell suspensions from lungs of the indicated groups were incubated in a 96-well U-bottom plate in complete RPMI 1640 media. […] Briefly, anti-CD107a (1D4B, BioLegend) antibody was added to single cell suspension during the stimulation period before these cells were surface stained and analyzed by flow cytometry.

[2] = test system: MAIT cells; assay: In vitro co-culture of purified splenic MAIT or conventional T cells with ligand-treated B16F10 cells; type: cell-based, mouse
[3] = test system: B16F10 cells; assay: B16F10 proliferative and migratory assays in vitro; type: cell-based, mouse; conditions: co-culture of B16F10 with ligand

Q: Which “proportion of MAIT cells producing IFNγ” value [1] does the source give for `CC(=O)C=Nc1c(NC[C@H](O)[C@H](O)[C@H](O)CO)[nH]c(=O)[nH]c1=O` [5-OP-RU] here?
A: did not change

Q: What about the “proportion of MAIT cells that expressed CD69” value [1] of the same compound?
A: increased proportion

Q: What about the “proportion of MAIT cells that expressed IL-17A” value [1] of the same compound?
A: increased proportion

Q: What about the “proportion of MAIT cells that expressed TNF” value [1] of the same compound?
A: increased proportion

Q: What about the cytokine production ([2]; conventional T cells with treated vs DMSO-treated B16F10) of the same compound?
A: no increase in cytokine production

Q: And the “number of treated CTV-labeled B16F10 cells” value ([2]; following co-culture with MAIT cells)?
A: decrease

Q: What about the “IFNγ, IL-17A and TNF production” value ([2]; purified splenic MAIT cells with treated vs DMSO-treated B16F10) of the same compound?
A: produced more

Q: And the “B16F10 biology as measured by proliferative or migratory assays” value [3]?
A: did not alter the biology of these cells
